Measurements from PubChem BioAssay (NCI).
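Results reflect a 48-hour exposure of cells in 96-well plates to compound at five concentrations. The concentration for full growth arrest is given as TGI.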

Tests used:
Assay in all cases: DTP human tumour cell line panel, 48 h
SF-295 CNS = tested on: SF-295 CNS
A549 NSCLC = tested on: A549 NSCLC
U251 CNS = tested on: U251 CNS
SNB-78 CNS = tested on: SNB-78 CNS
UACC-62 melanoma = tested on: UACC-62 melanoma
ACHN renal = tested on: ACHN renal
RPMI-8226 leukemia = tested on: RPMI-8226 leukemia
SW-620 colon = tested on: SW-620 colon
SNB-75 CNS = tested on: SNB-75 CNS
SN12C renal = tested on: SN12C renal
TK-10 renal = tested on: TK-10 renal
KM12 colon = tested on: KM12 colon
COLO 205 colon = tested on: COLO 205 colon
UO-31 renal = tested on: UO-31 renal
RXF 393 renal = tested on: RXF 393 renal
A498 renal = tested on: A498 renal
CCRF-CEM leukemia = tested on: CCRF-CEM leukemia
HT29 colon = tested on: HT29 colon
HOP-92 NSCLC = tested on: HOP-92 NSCLC
MALME-3M melanoma = tested on: MALME-3M melanoma
SK-MEL-5 melanoma = tested on: SK-MEL-5 melanoma
SK-MEL-28 melanoma = tested on: SK-MEL-28 melanoma
OVCAR-8 ovarian = tested on: OVCAR-8 ovarian
NCI-H23 lung = tested on: NCI-H23 lung
DMS 114 small cell lung = tested on: DMS 114 small cell lung
M14 melanoma = tested on: M14 melanoma
LXFL 529 NSCLC = tested on: LXFL 529 NSCLC
HCT-116 colon = tested on: HCT-116 colon
NCI-H522 lung = tested on: NCI-H522 lung
OVCAR-3 ovarian = tested on: OVCAR-3 ovarian
MOLT-4 leukemia = tested on: MOLT-4 leukemia
DLD-1 colon = tested on: DLD-1 colon
DMS 273 small cell lung = tested on: DMS 273 small cell lung
CAKI-1 renal = tested on: CAKI-1 renal
IGROV1 ovarian = tested on: IGROV1 ovarian
HCC-2998 colon = tested on: HCC-2998 colon
NCI-H460 lung = tested on: NCI-H460 lung
UACC-257 melanoma = tested on: UACC-257 melanoma
HCT-15 colon = tested on: HCT-15 colon
M19-MEL melanoma = tested on: M19-MEL melanoma
EKVX NSCLC = tested on: EKVX NSCLC
SK-OV-3 ovarian = tested on: SK-OV-3 ovarian
HOP-18 NSCLC = tested on: HOP-18 NSCLC
K-562 leukemia = tested on: K-562 leukemia
NCI-H226 lung = tested on: NCI-H226 lung
786-0 renal = tested on: 786-0 renal
SK-MEL-2 melanoma = tested on: SK-MEL-2 melanoma
LOX IMVI melanoma = tested on: LOX IMVI melanoma
SF-539 CNS = tested on: SF-539 CNS
KM20L2 colon = tested on: KM20L2 colon
SF-268 CNS = tested on: SF-268 CNS
SNB-19 CNS = tested on: SNB-19 CNS
OVCAR-4 ovarian = tested on: OVCAR-4 ovarian
OVCAR-5 ovarian = tested on: OVCAR-5 ovarian
HL-60(TB) leukemia = tested on: HL-60(TB) leukemia
HOP-62 NSCLC = tested on: HOP-62 NSCLC

Measured: TGI

CC1CC(=O)C2CC(CO)=CCCC2C1(C)CC/C(=C/CO)CO (stereo not given)
not listed: SK-MEL-2 melanoma | LOX IMVI melanoma | SF-539 CNS | KM20L2 colon | SF-268 CNS | SNB-19 CNS | OVCAR-4 ovarian | OVCAR-5 ovarian | HL-60(TB) leukemia | HOP-62 NSCLC
> 100 µM: all other assays above

N#CC1(Cc2ccccc2[N+](=O)[O-])c2ccccc2C2C(N1C(=O)c1ccccc1)C2(Cl)Cl (stereo not given)
not listed: RPMI-8226 leukemia | HL-60(TB) leukemia | HOP-62 NSCLC
> 100 µM: all other assays above

CC1(C)c2ccccc2C(C)(C)C(C(=O)Nc2ccccc2)C1C(=O)O (stereo not given)
not listed: CAKI-1 renal | IGROV1 ovarian | NCI-H460 lung | HCT-15 colon | OVCAR-4 ovarian
> 100 µM: all other assays above
